# Results reported in patent US4002623A, “Anti-inflammatory 1-[3-(dialkylamino)propyl]-2-acylaminobenzimidazoles and 2-acylamino-3-[3-(dialkylamino)-propyl]imidazo[4,5-b]pyridines” (Pfizer Inc., priority 1974, dated 1977).
# Experiment: adjuvant arthritis screen (Walz et al.), swelling of the non-injected left hind foot on Day 16
# Assay type: in vivo, male inbred Lewis rats
# Settings: Rattus norvegicus, 384 h, 10 mg./kg. ip, daily day -1 through day 15, read-out: Activity Percent Inhibition
# Source text: The adjuvant arthritis test described by Walz et al., Ann. Rheum. Dis., 30, 303 (1971) was selected as the method of choice for the determination of the extent of which the novel compounds of the present invention are therapeutically effective as anti-inflammatory agents. Adjuvant arthritis is a crippling deformity in rats resulting from diffuse connective tissue involvement. It is considered by some authorities to be the best available experimental animal model of human rheumatoid arthritis because of its strong clinical and pathological similarities to the human disease and because it can be effectively treated with known anti-arthritic drugs. In this test, lesions resembling those of human rheumatoid arthritis are induced by the injection of complete Freund's adjuvant into one hind leg of a rat. A vigorous inflammatory response occurs in the injected hind leg and reaches its greatest size in about four days. This primary response is followed by the development of a second inflammatory response, appearing about 12-16 days post-injection, that occurs in the uninjected hind leg. While the compounds of the invention are capable of inhibiting the degree of inflammation in both legs, the inhibition of swelling in the uninjected leg at 16 days is considered to be the more meaningful measure of antiarthritic activity.
# The adjuvant arthritis screen as described by Walz et al. (Ann. Rheum. Dis., 30: 303 (1971), was used to evaluate the above prepared compounds.
# The screen is conducted using male inbred Lewis rats weighing approximately 250 gm. The animals are dosed with drug beginning on day- 1 and continuing daily through day 15. On Day 0, the subplanter surface of the right hind paw is injected with 0.1cc of a 1% suspension of Mycobacterium butyricum (Freunds adjuvant) in Primol (Esso). The swelling of the non-injected left hind foot on Day 16, resulting from immune response to adjuvant, was determined for dosed animals and controls. The foot volume is measured by immersing the paw to the anatomical hairline into a mercury reservoir which is connected to a Statham pressure transducer and a recording device. The results are expressed as % inhibition calculated according to the following equation: [formula] The results obtained are as follows for [drawing 22] where Z is --N(CH3)2 and X is carbon: […]
row,SMILES,inhibition in vivo at 10 mg/kg
1,"O=C(Nc1nc2ccccc2n1CCCN1CCN(Cc2ccccc2)CC1)c1ccc(C(F)(F)F)cc1 [4-Trifluoromethylphenyl; H; H; drawing 27, 2-(4-trifluoromethylbenzamido)-1-[3-(4-benzyl-1-piperazinyl)-propyl]benzimidazole]",47%
2,"CN(C)CCCn1c(NC(=O)c2ccc(Cl)cc2)nc2ccccc21 [4-Chlorophenyl; H; H; Z = N(CH3)2, 1-[3-(dimethylamino)propyl]-2-(4-chlorobenzamido)-benzimidazole]",27%
3,O=C(Nc1nc2ccccc2n1CCCN1CCN(Cc2ccccc2)CC1)c1cccc(C(F)(F)F)c1 [3-Trifluoromethylphenyl; H; H; drawing 27],35%

# Same assay, conditions: Rattus norvegicus, 384 h, 10 mg./kg. po, daily day -1 through day 15, read-out: Activity Percent Inhibition
row,SMILES,inhibition in vivo at 10 mg/kg
1,O=C(Nc1nc2ccccc2n1CCCN1CCNCC1)c1cccc(C(F)(F)F)c1 [3-Trifluoromethylphenyl; H; H; drawing 28],13%
2,CN1CCN(CCCn2c(NC(=O)c3ccc(C(F)(F)F)cc3)nc3cc(C(F)(F)F)ccc32)CC1 [4-Trifluoromethylphenyl; CF3; H; drawing 24],28%
3,"CN1CCN(CCCn2c(NC(=O)c3cccc(Cl)c3)nc3cc(S(=O)(=O)N(C)C)ccc32)CC1 [3-Chlorophenyl; SO2 N(CH3)2; H; drawing 24, 1-[3-(4-methyl-1-piperazinyl)propyl]-2-(3-chlorobenzamido)-5-(N,N-dimethylsulfonamido)benzimidazole]",35%
4,CN1CCN(CCCn2c(NC(=O)c3ccc(Cl)cc3)nc3cc(Cl)ccc32)CC1 [4-Chlorophenyl; Cl; H; drawing 24],-10%
5,"CN1CCN(CCCn2c(NC(=O)c3ccc(C(F)(F)F)cc3)nc3cc(Cl)ccc32)CC1 [4-Trifluoromethylphenyl; Cl; H; drawing 24, 1-[3-(4-methyl-1-piperazinyl)propyl]-2-(4-trifluoromethylbenzamido)-5-chlorobenzimidazole]",38%

# Same assay, conditions: Rattus norvegicus, 384 h, 20 mg./kg. po, daily day -1 through day 15, read-out: Activity Percent Inhibition
row,SMILES,inhibition in vivo at 20 mg/kg
1,"COc1cccc(C(=O)Nc2nc3ccc(C)cc3n2CCCN2CCN(C)CC2)c1 [3-Methoxyphenyl; H; CH3; drawing 24, 1-[3-(4-methyl-1-piperazinyl)propyl]-2-(3-methoxybenzamido)-6-methylbenzimidazole]",44%
2,Cc1ccc2c(c1)nc(NC(=O)c1ccc(C(F)(F)F)cc1)n2CCCN1CCN(C)CC1 [4-Trifluoromethylphenyl; CH3; H; drawing 24],35%
3,CN1CCN(CCCn2c(NC(=O)c3ccc(Cl)cc3)nc3cc(S(=O)(=O)N(C)C)ccc32)CC1 [4-Chlorophenyl; SO2 N(CH3)2; H; drawing 24],18%
4,"COc1cccc(C(=O)Nc2nc3cc(C)ccc3n2CCCN2CCN(C)CC2)c1 [3-Methoxyphenyl; CH3; H; drawing 24, 1-[3-(4-methyl-1-piperazinyl)propyl]-2-(3-methoxybenzamido)-5-methylbenzimidazole]",37%
5,CN1CCN(CCCn2c(NC(=O)c3ccc(Cl)cc3)nc3cccnc32)CC1 [4-Chlorophenyl; H; H; drawing 25],26%
6,CN1CCN(CCCn2c(NC(=O)c3ccc(C(F)(F)F)cc3)nc3cccnc32)CC1 [4-Trifluoromethylphenyl; H; H; drawing 25],14%
7,Cc1cc2nc(NC(=O)c3ccc(Cl)cc3)n(CCCN3CCN(C)CC3)c2cc1C [4-Chlorophenyl; CH3; CH3; drawing 24],30%
8,Cc1ccc2nc(NC(=O)c3cccc(C(F)(F)F)c3)n(CCCN3CCN(C)CC3)c2c1 [3-Trifluoromethylphenyl; H; CH3; drawing 24],21%
9,Cc1ccc2c(c1)nc(NC(=O)c1cccc(Cl)c1)n2CCCN1CCN(C)CC1 [3-Chlorophenyl; CH3; H; drawing 24],29%
10,CN1CCN(CCCn2c(NC(=O)c3cccc(C(F)(F)F)c3)nc3cc(S(=O)(=O)N(C)C)ccc32)CC1,22%
11,Cc1cc2nc(NC(=O)c3ccc(C(F)(F)F)cc3)n(CCCN3CCN(C)CC3)c2cc1C,29%
12,CN1CCN(CCCn2c(NC(=O)c3cccc(Cl)c3)nc3cccnc32)CC1 [3-Chlorophenyl; H; H; drawing 25],26%
13,"Cc1cc2nc(NC(=O)c3ccccc3)n(CCCN3CCN(C)CC3)c2cc1C [Phenyl; CH3; CH3; drawing 24, 1-[3-(4-methyl-1-piperazinyl)propyl]-2-benzamido-5,6-dimethylbenzimidazole]",31%

# Same assay, conditions: Rattus norvegicus, 384 h, 33 mg./kg. ip, daily day -1 through day 15, read-out: Activity Percent Inhibition
row,SMILES,inhibition in vivo at 33 mg/kg
1,CN1CCN(CCCn2c(NC(=O)c3ccc(C(F)(F)F)cc3)nc3cc(C(F)(F)F)ccc32)CC1 [4-Trifluoromethylphenyl; CF3; H; drawing 24],71%
2,Cc1cccc(C(=O)Nc2nc3ccccc3n2CCCN(C)C)c1 [3-Methylphenyl; H; H; Z = N(CH3)2],21%
3,CN1CCN(CCCn2c(NC(=O)c3cccc(C(F)(F)F)c3)nc3cc(Cl)c(Cl)cc32)CC1 [3-Trifluoromethylphenyl; Cl; Cl; drawing 24],74%
4,CN1CCN(CCCn2c(NC(=O)c3cccc(Cl)c3)nc3ccccc32)CC1 [3-Chlorophenyl; H; H; drawing 24],46%
5,CN1CCN(CCCn2c(NC(=O)c3ccc(Cl)cc3)nc3cc(Cl)ccc32)CC1 [4-Chlorophenyl; Cl; H; drawing 24],63%
6,COc1ccc(C(=O)Nc2nc3ccccc3n2CCCN2CCOCC2)cc1 [4-Methoxyphenyl; H; H; drawing 23],54%
7,COc1cccc(C(=O)Nc2nc3cc(Cl)ccc3n2CCCN2CCN(C)CC2)c1 [3-Methoxyphenyl; Cl; H; drawing 24],17%
8,COc1cccc(C(=O)Nc2nc3ccccc3n2CCCN(C)C)c1 [3-Methoxyphenyl; H; H; Z = N(CH3)2],21%
9,"CN(C)CCCn1c(NC(=O)c2ccc(Cl)cc2)nc2ccccc21 [4-Chlorophenyl; H; H; Z = N(CH3)2, 1-[3-(dimethylamino)propyl]-2-(4-chlorobenzamido)-benzimidazole]",51%
10,COc1cccc(C(=O)Nc2nc3ccccc3n2CCCN2CCN(C)CC2)c1 [3-Methoxyphenyl; H; H; drawing 24],26%
11,COCC(=O)Nc1nc2ccccc2n1CCCN1CCOCC1 [CH3 OCH2; H; H; drawing 23],21%
12,COc1ccc(C(=O)Nc2nc3ccccc3n2CCCN2CCN(C)CC2)cc1 [4-Methoxyphenyl; H; H; drawing 24],27%
13,CN(C)CCCn1c(NC(=O)c2cccc(Cl)c2)nc2ccccc21 [3-Chlorophenyl; H; H; Z = N(CH3)2],33%
14,COc1ccc2c(c1)nc(NC(=O)c1ccc(C(F)(F)F)cc1)n2CCCN1CCN(C)CC1 [4-Trifluoromethylphenyl; OCH3; H; drawing 24],69%
15,"CN1CCN(CCCn2c(NC(=O)c3ccc(C(F)(F)F)cc3)nc3cc(Cl)ccc32)CC1 [4-Trifluoromethylphenyl; Cl; H; drawing 24, 1-[3-(4-methyl-1-piperazinyl)propyl]-2-(4-trifluoromethylbenzamido)-5-chlorobenzimidazole]",72%
16,O=C(Nc1nc2ccccc2n1CCCN1CCCCC1)c1cccc(F)c1 [3-Fluorophenyl; H; H; drawing 26],27%
17,COc1cccc(C(=O)Nc2nc3ccccc3n2CCCN2CCOCC2)c1 [3-Methoxyphenyl; H; H; drawing 23],29%
18,COc1ccc2c(c1)nc(NC(=O)c1ccccc1)n2CCCN1CCN(C)CC1 [Phenyl; OCH3; H; drawing 24],27%
19,O=C(Nc1nc2ccccc2n1CCCN1CCOCC1)c1ccc(Cl)cc1 [4-Chlorophenyl; H; H; drawing 23],15%
20,O=C(Nc1nc2ccccc2n1CCCN1CCOCC1)c1ccccc1F [2-Fluorophenyl; H; H; drawing 23],6%
21,CN1CCN(CCCn2c(NC(=O)c3ccccc3)nc3cc(Cl)ccc32)CC1 [Phenyl; Cl; H; drawing 24],41%
22,CN1CCN(CCCn2c(NC(=O)c3ccccc3)nc3cc(C(F)(F)F)ccc32)CC1 [Phenyl; CF3; H; drawing 24],29%
23,Cc1cccc(C(=O)Nc2nc3ccccc3n2CCCN2CCOCC2)c1 [3-Methylphenyl; H; H; drawing 23],40%
24,O=C(Nc1nc2ccccc2n1CCCN1CCOCC1)c1ccccc1 [Phenyl; H; H; drawing 23],15%
25,O=C(Nc1nc2ccccc2n1CCCN1CCOCC1)c1ccc(C(F)(F)F)cc1 [4-Trifluoromethylphenyl; H; H; drawing 23],35%
26,COCC(=O)Nc1nc2ccccc2n1CCCN(C)C [CH3 OCH2; H; H; Z = N(CH3)2],32%

# Same assay, conditions: Rattus norvegicus, 384 h, 33 mg./kg. po, daily day -1 through day 15, read-out: Activity Percent Inhibition
row,SMILES,inhibition in vivo at 33 mg/kg
1,"CN1CCN(CCCn2c(NC(=O)c3cccc(Cl)c3)nc3cc(S(=O)(=O)N(C)C)ccc32)CC1 [3-Chlorophenyl; SO2 N(CH3)2; H; drawing 24, 1-[3-(4-methyl-1-piperazinyl)propyl]-2-(3-chlorobenzamido)-5-(N,N-dimethylsulfonamido)benzimidazole]",54%

# Same assay, conditions: Rattus norvegicus, 384 h, 100 mg./kg. po, daily day -1 through day 15, read-out: Activity Percent Inhibition
row,SMILES,inhibition in vivo at 100 mg/kg
1,"O=C(Nc1nc2ccccc2n1CCCN1CCOCC1)c1cccc(Cl)c1 [3-Chlorophenyl; H; H; drawing 23, 1-[3-(N-morpholino)propyl]-2-(3-chlorobenzamido)benzimidazole]",32%
